The values that follow come from US20150328199A1, “METHODS AND COMPOSITIONS USING 4-AMINO-2-(2,6-DIOXO-PIPERIDINE-3-YL)-ISOINDOLINE-1,3-DIONE FOR TREATMENT OF CANCERS” (Celgene Corporation, priority 2014, published 2015).

A short description of data set [1]: Clinical pharmacokinetics of pomalidomide after single oral dose (non-compartmental analysis). Format: in vivo, human. The procedure:
Pomalidomide is absorbed with a maximum plasma concentration (Cmax) at a median time (tmax) between 2 hours and 3 hours after clinically relevant doses. Pomalidomide is >73% absorbed following administration of a single oral dose. […] Based on non-compartmental analysis, mean (percent coefficient of variation [%CV]) apparent volume of distribution (Vz/F) of pomalidomide after a single dose ranges from 74 L (20%) to 138 L (30%) across a dose range of 1 mg to 10 mg. Pomalidomide is extensively metabolized via multiple metabolic pathways and is eliminated in human via multiple pathways.

Data set [2] is described as follows: Comparative population pharmacokinetic analysis of pomalidomide with thalidomide and lenalidomide (two-compartment PPK model). It counts as in vivo, human. As to conditions: for drug exposure in central (plasma) compartment, patients versus healthy subjects: FIG. 7A, 8A; for drug exposure in peripheral compartment, patients versus healthy subjects: FIG. 7B, 8B; for relation of disease stage and peripheral compartment exposure in patients: FIG. 9. From the text: Population pharmacokinetic analysis of pomalidomide was compared with that of 2-(2,6-dioxopiperidin-3-yl)-1H-isoindole-1,3(2H)-dione (“thalidomide”) and 3-(4-amino-1-oxo-1,3-dihydro-2H-isoindo1-2-yl)piperidine-2,6-dione (“lenalidomide” also known as “Revlimid”), on available data from healthy subjects and MM patients. The results of analyses are provided in Table 7 and FIGS. 3A to FIGS. 9. FIGS. 3A and 3B provide concentration vs. time profiles for thalidomide, lenalidomide and pomalidomide.
The data of thalidomide and revlimid are based on a population pharmacokinetic analysis performed on data from studies using a two-compartment PPK model.

On to `Nc1cccc2c1C(=O)N(C1CCC(=O)NC1=O)C2=O` (stereo not drawn) [Pomalidomide, 4-amino-2-(2,6-dioxo-piperidine-3-yl)-isoindoline-1,3-dione], for which the Tmax in data set [1] (human, plasma, oral, after clinically relevant doses, read-out: median time (tmax) of maximum plasma concentration) lay within 2 to 3 h. Besides, in data set [1] (human, plasma, oral, read-out: geometric mean terminal half-life (t1/2) (converted)), the half-life was around 7.5 h. Further, in data set [1] (single dose), the Cmax versus dose entry is “less than dose proportional” and the “systemic exposure (AUC) versus dose” value was “approximately dose-proportional”. The molecule also displayed an absorbed in data set [1] (single oral dose) above 73%. Besides, in data set [2], the “drug exposure in central (plasma) compartment, patients versus healthy subjects” value is “comparable”; the “drug exposure in peripheral compartment, patients versus healthy subjects” value was “higher drug exposure”; the “relation of disease stage and peripheral compartment exposure in patients” value was “higher disease stage were correlated with higher peripheral compartment pomalidomide exposure”. The “relation of disease stage and peripheral compartment exposure in patients” value in data set [2] (listed as 4-amino-2-(2,6-dioxo-piperidine-3-yl)-isoindoline-1,3-dione) is given as “higher disease stage was correlated with higher peripheral compartment”. Besides, in data set [2] (HNV (healthy subjects)), the apparent clearance CL/F stood at 8.52 L/h, the KA came out at 1.25 h⁻¹, the Q/CL was 11.8% and the Q/F was 1.01 L/h. Moreover, in data set [2] (HNV (healthy subjects)), the Tlag was 0.385 h. In data set [2] (Patients (MM)), this molecule came in with an apparent clearance CL/F of 7.78 L/h, a KA of 1.25 h⁻¹, a Q/CL of 48% and a Q/F of 3.75 L/h. The same molecule returned a Tlag in data set [2] (Patients (MM)) of 0.206 h.

Take `O=C1CCC(N2C(=O)c3ccccc3C2=O)C(=O)N1` (stereo not drawn) [Thalidomide, 2-(2,6-dioxopiperidin-3-yl)-1H-isoindole-1,3(2H)-dione]: in data set [2], the “drug exposure in central (plasma) compartment, patients versus healthy subjects” value was “comparable” and the “drug exposure in peripheral compartment, patients versus healthy subjects” value is “comparable”. In data set [2] (HNV (healthy subjects)), the CL/F came to 9.66 L/h, the KA was found to be 0.536 h⁻¹, the Q/CL was 4% and the Q/F turned out to be 0.355 L/h. Besides, in data set [2] (HNV (healthy subjects)), the “Relative Potential of Deep Penetration” value was found to be 0.6%, the V2/F was determined as 83.3 L, the V3/F came to 13.5 L and the V3/V2 turned out to be 16%.

Turning to `Nc1cccc2c1CN(C1CCC(=O)NC1=O)C2=O` (stereo not drawn) [Revlimid, 3-(4-amino-1-oxo-1,3-dihydro-2H-isoindo1-2-yl)piperidine-2,6-dione], in data set [2], the “drug exposure in central (plasma) compartment, patients versus healthy subjects” value is given as “comparable” and the “drug exposure in peripheral compartment, patients versus healthy subjects” value is on record as “comparable”. For the same molecule, in data set [2] (HNV (healthy subjects)), the CL/F was found to be 16.8 L/h, the KA turned out to be 5.41 h⁻¹, the Q/CL is 12.7% and the Q/F came out at 2.14 L/h. In data set [2] (HNV (healthy subjects)), the “Relative Potential of Deep Penetration” value is recorded as 2.1%, the Tlag was determined as 0.25 h, the V2/F worked out at 56.5 L and the V3/F is given as 9.49 L. In data set [2] (HNV (healthy subjects)), the V3/V2 is 16.8%. For the same molecule, in data set [2] (Patients (MM)), the CL/F is 10.2 L/h, the Q/CL is 11.1%, the Q/F was 1.13 L/h and the “Relative Potential of Deep Penetration” value stood at 1.9%. In data set [2] (Patients (MM)), the Tlag turned out to be 0.235 h, the V2/F came out at 48.3 L, the V3/F turned out to be 8.36 L and the V3/V2 turned out to be 17.3%.
